# Patent publication US20090170900A1, “DOSING REGIMEN FOR WEIGHT LOSS” (UTI LIMITED PARTNERSHIP, priority 2005, published 2009)
# Like-named read-outs stand apart in the source and are kept apart here.
# How the values were obtained:
# [1] = biological target: CB1 (Homo sapiens, UniProt P21554); details: cited from earlier work
# [2] = Food intake after a single intraperitoneal injection in prefed, moderately obese male Lewis rats (Example 1); details: for cumulative food intake: AM-251 5 mg/kg i.p., Ensure Plus
# [3] = Body weight gain with daily or twice-weekly intragastric injection (Example 4); type: in vivo, rat; details: low doses by the intragastric route, 28 days
# From the text: (§1) Each of the rats was assigned to one of five groups. […] These groups were compared to the group with daily injection of vehicle (n=8).
# [4] = Daily food intake with administration every 5 days (Example 3); details: 5 mg/kg every 5 days
# [5] = cited from earlier work
# [6] = Body weight change with administration every 5 days (Example 3); details: 5 mg/kg every 5 days, p<0.05
# [7] = Weight gain or loss after a single dose of 1.25 or 2.5 mg/kg (Example 2); type: in vivo, rat; details: for weight gain or loss: over 10 days
# Method: (§2) Food intake and weight measurements were taken daily. […] Animals were assigned into vehicle, 1.25 or 2.5 mg/kg conditions via a counterbalance design.
# [8] = Daily food intake after a single dose of 1.25 or 2.5 mg/kg (Example 2); type: in vivo, rat
# Method: as §2
# [9] = cited from earlier work; remark: listed apart in the source
# [10] = determined from behavioral tests; cited from earlier work
# [11] = Two-flavored conditioned aversion test (Example 4); type: in vivo, rat; details: for short-term percentage preference for the primary flavor associated with drug delivery: 15 min; for percentage daily preference for the flavor associated with drug delivery: 17 hr
# From the text: Another objective was to determine whether the animals were responding negatively to the drug as determined by the use of a two-flavored conditioned aversion test in which the drug was repeatedly paired with one flavor of liquid diet while the vehicle injection was paired with the other flavor. There were ten training trials before the test procedure was done so the rats had sufficient time to make associations between flavors and internal consequences. This test procedure involved giving the rats two bottles, containing the liquid diets flavored with chocolate and strawberry, and determining the individual rat's preference for one or the other of the flavors. A conditioned aversion was established if the rat chose against the flavor associated with the drug injections.
# as §1
# This conditioning procedure was done for 10 exposures before the actual conditioned aversion test was done on day 33. This aversion test was done by allowing each rat exposure for 17 hrs to two bottles, one containing chocolate-flavored and the other containing strawberry-flavored liquid diet. No drugs or vehicles were injected on this day. […] Moreover, the rats were forced to taste both flavors for three or four licks before the diets were made freely available to them so the rats were fully aware that two flavors were present. […] The 17-hour tests allowed repeated association between the internal consequences of the drug and the taste of the drug associated primary flavor.
# [12] = mice; cited from earlier work
# [13] = animal model of temporal lobe epilepsy; cited from earlier work
# [14] = 5 and 20 mg doses; human trials; cited from earlier work
# [15] = rats injected daily (intragastric)
# CB1, sequence (P21554 whole entry, species assumed): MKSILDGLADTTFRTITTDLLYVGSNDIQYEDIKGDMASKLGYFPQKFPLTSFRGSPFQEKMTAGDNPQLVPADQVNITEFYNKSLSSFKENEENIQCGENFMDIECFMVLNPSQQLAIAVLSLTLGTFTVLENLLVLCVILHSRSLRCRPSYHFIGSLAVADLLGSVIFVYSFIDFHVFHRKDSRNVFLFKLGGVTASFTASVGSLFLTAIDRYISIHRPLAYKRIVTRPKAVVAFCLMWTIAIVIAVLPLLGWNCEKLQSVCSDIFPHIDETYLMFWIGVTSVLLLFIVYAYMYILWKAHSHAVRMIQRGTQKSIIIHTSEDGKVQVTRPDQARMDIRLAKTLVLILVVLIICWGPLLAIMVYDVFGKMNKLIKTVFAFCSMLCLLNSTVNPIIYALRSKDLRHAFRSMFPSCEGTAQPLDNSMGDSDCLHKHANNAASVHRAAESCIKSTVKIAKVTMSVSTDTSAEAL
smiles,measurement,setting,value
"Cc1c(C(=O)NN2CCOCC2)nn(-c2ccc(Cl)cc2Cl)c1-c1ccc(I)cc1 [AM 281, N-(Morpholin-1-yl)-1-(2,4-dichlorophenyl)-5-(4-iodophenyl)-4-methyl-1H-pyrazole-3-carboxamide]",CB1 antagonist activity and selectivity,[1],"potent, CB1 selective antagonists"
"Cc1c(C(=O)NN2CCCCC2)nn(-c2ccc(Cl)cc2Cl)c1-c1ccc(I)cc1 [AM-251, N-(piperidin-1-yl)-5-(4-iodophenyl)-1-(2,4-dichlorophenyl)-4-methyl-1H-pyrazole-3-carboxamide]",daily food intake,"[2]; 5 mg/kg i.p., day of injection",36.7 ± 3.3 g
same,daily food intake,"[2]; 5 mg/kg i.p., last day of significant reduction (day before the next drugs were given)",47.0 ± 2.5 g
same,duration of significant reduction in daily food intake,"[2]; 5 mg/kg i.p., starting on the day of injection",6 days
same,cumulative food intake,[2]; 1 h of testing,no intake
same,cumulative food intake,[2]; 2 h of testing,1.3 ± 0.8 g
same,cumulative food intake,[2]; 3 h of testing,3.3 ± 1.4 g
same,effect on body weight gain,[3],significant slowing in weight gain
same,days on which food intake was significantly reduced,[4],"days 1-4, and days 6-15"
same,time that reductions in food intake continued after the last treatment,[4],five
same,duration of significant reductions in food intake after the first dose,"[4]; vs vehicle, p<0.05",4 days
same,time of repeated daily administration after which changes in food intake were non-significant,"[5]; 3 mg/kg daily, mouse",8 days
same,effect of stopping daily doses,[5]; approximately 10 mg/kg daily,significant rebound hyperphagia and a rapid return in body weight
same,period of significant differences in weight change vs vehicle,[6]; Newman-Keuls multiple comparison test,day 1 to day 24
same,period of significant reductions in weight gain,"[6]; unpaired t-test, last administration on day 11",day 1 until day 27
same,weight gain or loss,[7]; 1.25 mg/kg single dose,2.5 ± 2.0 g
same,weight gain or loss,[7]; 2.5 mg/kg single dose,-5.1 ± 2.1 g
same,duration of weight loss compared with duration of reduced food intake,"[7]; lowest dose, 1.25 mg/kg",the duration of weight loss exceeded the duration of reduced food intake
same,"reductions in food intake, dose relation",[8]; 1.25 mg/kg or 2.5 mg/kg single dose,dose dependent
same,duration of significant reductions in food intake after the day of administration,"[8]; 2.5 mg/kg single dose, significant starting the day of administration, p<0.001",4 days
CN=C(NS(=O)(=O)c1ccc(Cl)cc1)N1C[C@H](c2ccccc2)C(c2ccc(Cl)cc2)=N1 [SLV-319],CB1 antagonist activity and selectivity,[1],"potent, CB1 selective antagonists"
"Cc1c(C(=O)NN2CCCCC2)nn(-c2ccc(Cl)cc2Cl)c1-c1ccc(Cl)cc1 [rimonabant, N-(piperidin-1-yl)-5-(4-chlorophenyl)-1-(2,4-dichlorophenyl)-4-methyl-1H-pyrazole-3-carboxamide]",effect of stopping daily doses,[9]; approximately 10 mg/kg daily,significant rebound hyperphagia and a rapid return in body weight
same,time of treatment after which the anorectic effect waned,"[9]; continued treatment, rats",5 days
same,effect on body weight gain,[3],significant slowing in weight gain
same,predicted half-life,[10],22 h
same,short-term percentage preference for the primary flavor associated with drug delivery,[11]; [15],48%
same,short-term percentage preference for the primary flavor associated with drug delivery,[11]; rats injected twice-weekly (intragastric),44%
same,percentage daily preference for the flavor associated with drug delivery,[11]; rats injected biweekly (intragastric),50%
same,percentage daily preference for the flavor associated with drug delivery,[11]; [15],67%
same,damage in response to an inflammatory stimulus vs vehicle-treated controls,[12],significantly more damage
same,frequency of protracted seizures,[13],significantly higher frequency of protracted seizures
same,most common side effects,[14],"nausea, dizziness, arthralgia and diarrhea"
